Results published in patent US9040747B2, “Method for producing reduced coenzyme Q10, method for stabilizing same, and composition comprising same” (Kaneka Corporation, priority 2009, dated 2015).

Legend:
[1] = Reduction of oxidized coenzyme Q10 by amino acid in limonene, HPLC proportion of reduced coenzyme Q10; details: 85° C., 16 hours, nitrogen atmosphere; for Comparative Example 4: proportion of reduced coenzyme Q10: 6 equivalents amino acid; for proportions of reduced coenzyme Q10: Example 3: 6 equivalents
Experimental: (§1) The purity of reduced coenzyme Q10 and the weight ratio of reduced coenzyme Q10 to oxidized coenzyme Q10 were determined by HPLC analysis in the Examples.
(§2) Column: […] C18 (Waters): 250 mm (length)×4.6 mm (inner diameter); mobile phase: C2H5OH:CH3OH=4:3 (v:v); detection wavelength: 210 nm; flow rate: 1 ml/min; retention time for reduced coenzyme Q10: 9.1 min.; retention time for oxidized coenzyme Q10: 13.3 min.
Crystalline oxidized coenzyme Q10 (0.3 g (i.e. 0.36 mmol)) was added to limonene (4.5 g). Proline (6 equivalents (i.e., 2.16 mmol)) or serine (6 equivalents (i.e. 2.16 mmol)) was separately added thereto. The obtained mixtures were stirred and heated at 85° C. for 16 hours under a nitrogen atmosphere. The reaction solutions were analyzed by HPLC after the reaction.
(§3) Crystalline oxidized coenzyme Q10 (0.3 g (i.e., 0.36 mmol)) was added to limonene (4.5 g). One of the amino acids (6 equivalents (i.e., 2.16 mmol) each) listed in table 3 was separately added thereto. The obtained mixtures were stirred and heated at 85° C. for 16 hours under a nitrogen atmosphere.

[2] = Reduction of oxidized coenzyme Q10 by amino acid in ethanol, HPLC proportion of reduced coenzyme Q10; details: 78° C., 16 hours, nitrogen atmosphere; for Comparative Example 2: proportion of reduced coenzyme Q10: 6 equivalents amino acid; for Proportion of reduced coenzyme Q10: Example 1: 6 equivalents amino acid
Experimental: as §1
Crystalline oxidized coenzyme Q10 (0.3 g (i.e., 0.36 mmol)) was added to ethanol (4.5 g). […] The obtained mixtures were stirred and heated at 78° C. for 16 hours under a nitrogen atmosphere.

[3] = Reduction of oxidized coenzyme Q10 by amino acid in Span 80/glycerin/Tween 80/MCT, HPLC proportion of reduced coenzyme Q10; details: Span 80, glycerin, Tween 80, MCT, 80° C., 16 hours, nitrogen atmosphere; for Comparative Example 3: proportion of reduced coenzyme Q10: 6 equivalents amino acid; for Proportion of reduced coenzyme Q10: Example 2 / Comparative Example 1: 6 equivalents
Experimental: as §1, §2
Crystalline oxidized coenzyme Q10 (0.3 g (i.e., 0.36 mmol)) and tryptophan (6 equivalents (i.e., 2.16 mmol)) were added to a liquid mixture of Span 80 (0.4 g), glycerin (0.3 g), Tween 80 (4.9 g), and MCT (1.4 g). The obtained mixture was stirred and heated at 80° C. for 16 hours under a nitrogen atmosphere.
(§4) Crystalline oxidized coenzyme Q10 (0.3 g (i.e., 0.36 mmol)) was added to a liquid mixture of Span 80 (0.4 g), glycerin (0.3 g), Tween 80 (4.9 g), and MCT (1.4 g). L-cysteine or N-acetylcysteine (6 equivalents (i.e., 2.16 mmol) each) was separately added thereto. The obtained mixtures were stirred and heated at 80° C. for 16 hours under a nitrogen atmosphere.
as §4, with “One of the amino acids” for “L-cysteine or N-acetylcysteine”, “each) listed in table 3” for “each)”

[4] = Reduction of oxidized coenzyme Q10 by amino acid in condensed ricinoleate (CR-310)/MCT, HPLC proportion of reduced coenzyme Q10; details: condensed ricinoleate (CR-310) and MCT, 80° C., 16 hours, nitrogen atmosphere; for Comparative Example 5: proportion of reduced coenzyme Q10: 6 equivalents amino acid
Experimental: as §1, §2
Crystalline oxidized coenzyme Q10 (0.3 g (i.e. 0.36 mmol)) and tryptophan (6 equivalents (i.e., 2.16 mmol)) were added to a liquid mixture of condensed ricinoleate (CR-310, Sakamoto Yakuhin Kogyo Co., Ltd.) (3.8 g) and MCT (3.8 g). The obtained mixture was stirred and heated at 80° C. for 16 hours under a nitrogen atmosphere. The reaction solution was analyzed by HPLC after the reaction.
as §3, with “a liquid mixture of condensed ricinoleate (CR-310, Sakamoto Yakuhin Kogyo Co., Ltd.) (3.8 g) and MCT (3.8” for “limonene (4.5”, “80°” for “85°”

C[C@H](N)C(=O)O [Alanine]
Comparative Example 4: proportion of reduced coenzyme Q10 [1]: 0% | Comparative Example 2: proportion of reduced coenzyme Q10 [2]: 0% | Comparative Example 3: proportion of reduced coenzyme Q10 [3]: 0% | Comparative Example 5: proportion of reduced coenzyme Q10 [4]: 0%

N=C(N)NCCC[C@H](N)C(=O)O [Arginine]
Proportion of reduced coenzyme Q10 [2]: 35% by weight

NCC(=O)O [Glycine]
Comparative Example 4: proportion of reduced coenzyme Q10 [1]: 0% | Comparative Example 2: proportion of reduced coenzyme Q10 [2]: 0% | Comparative Example 3: proportion of reduced coenzyme Q10 [3]: 0% | Comparative Example 5: proportion of reduced coenzyme Q10 [4]: 1%

CC[C@H](C)[C@H](N)C(=O)O [Isoleucine]
Comparative Example 4: proportion of reduced coenzyme Q10 [1]: 0% | Comparative Example 2: proportion of reduced coenzyme Q10 [2]: 1% | Comparative Example 3: proportion of reduced coenzyme Q10 [3]: 1% | Comparative Example 5: proportion of reduced coenzyme Q10 [4]: 0%

N[C@@H](CS)C(=O)O [L-cysteine]
Proportion of reduced coenzyme Q10 [3]: 7% by weight

CC(=O)N[C@@H](CS)C(=O)O [N-acetylcysteine]
Proportion of reduced coenzyme Q10 [3]: 3% by weight

O=C(O)[C@@H]1CCCN1 [Proline]
proportions of reduced coenzyme Q10 [1]: 8 % by weight | Proportion of reduced coenzyme Q10 [2]: 6% by weight

N[C@@H](CO)C(=O)O [Serine]
proportions of reduced coenzyme Q10 [1]: 3 % by weight | Proportion of reduced coenzyme Q10 [2]: 5% by weight

N[C@@H](Cc1c[nH]c2ccccc12)C(=O)O [Tryptophan]
Proportion of reduced coenzyme Q10 [2]: 21% by weight | Proportion of reduced coenzyme Q10 [3]: 33% by weight | Proportion of reduced coenzyme Q10 ([4]; Example 4: 6 equivalents): 5 % by weight

CC(C)[C@H](N)C(=O)O [Valine]
Comparative Example 4: proportion of reduced coenzyme Q10 [1]: 0% | Comparative Example 2: proportion of reduced coenzyme Q10 [2]: 1% | Comparative Example 3: proportion of reduced coenzyme Q10 [3]: 0% | Comparative Example 5: proportion of reduced coenzyme Q10 [4]: 0%

Lysine•n hydrate
Proportion of reduced coenzyme Q10 [2]: 69% by weight
